This is an account of results in patent US12180226B2, “Spirotricycle RIPK1 inhibitors and methods of uses thereof” (Merck Sharp & Dohme LLC, priority 2021, dated 2024).

The test has as its target RIPK1 (recombinant GST-RIPK1 kinase domain, residues 1-327) (Homo sapiens (Human), UniProt Q13546). The test is described as follows: RIPK1-ADP-Glo Enzymatic Assay. The class given is biochemical. The following applies: ADP-Glo; 25 nM GST-RIPK1, 300 μM ATP; assay lower limit ~25 nM; read-out: RIPK1 V0 Ec50. Summed up: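 Enzyme from baculovirus-infected Sf21 cells, 25 nM final, was pre-incubated 30 min at ambient temperature with compound (ten-point, 1:3 dilution from 100000 nM, 1% DMSO), then reacted 150 min with 300 μM ATP and 3 μM dephosphorylated MBP. ADP was read by luminescence; EC50 from four-parameter fit.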
(In ADP-Glo the light output rises with the ADP produced.)

Where a name gives a salt, the structure may show the parent alone.

RIPK1 (recombinant GST-RIPK1 kinase domain, residues 1-327), sequence (Q13546 1-327): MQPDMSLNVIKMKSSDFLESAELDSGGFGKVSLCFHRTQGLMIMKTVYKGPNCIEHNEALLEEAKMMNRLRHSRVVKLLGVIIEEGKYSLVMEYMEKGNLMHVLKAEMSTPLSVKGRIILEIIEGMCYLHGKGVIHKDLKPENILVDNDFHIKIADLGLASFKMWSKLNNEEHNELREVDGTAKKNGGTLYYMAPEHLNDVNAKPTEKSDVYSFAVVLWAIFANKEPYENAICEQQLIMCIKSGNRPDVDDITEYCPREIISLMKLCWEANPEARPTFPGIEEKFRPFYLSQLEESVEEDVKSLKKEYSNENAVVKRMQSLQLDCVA

For `O=C(c1ccccc1)N1CCC2(CC1)CC1COC(c3cc(F)cc(F)c3)N1C2=O` (centres unmarked) [Example 6.163, 1-(benzenecarbonyl)-3′-(3,5-difluoro-phenyl)dihydro-1′H,3′H,5′H-spiro [piperidine-4,6′-pyrrolo[1,2-c][1,3]oxazol]-5′-one], the EC50 (usually the concentration giving half of the maximal effect) is 29.1 nM.

For `O=C(Nc1ccccc1)N1CCC2(CC1)O[C@@H]1CC[C@@H](c3cc(F)cc(F)c3)N1C2=O` [Example 12.1, (5′S,7a′R)-5′-(3,5-Difluorophenyl)-3′-oxo-N-phenyltetrahydro-3′H-spiro[piperidine-4,2′-pyrrolo[2,1-b]oxazole]-1-carboxamide], the EC50 was 537 nM.

For `O=C1N2[C@@H](CC[C@H]2c2ccccc2)OC12CCN(c1cc(F)c(O)cn1)CC2` [Example 4.209, (5′S,7a′R)-1-(4-fluoro-5-hydroxypyridin-2-yl)-5′-phenyltetrahydro-3′H-spiro[piperidine-4,2′-pyrrolo[2,1-b] [1,3]oxazol]-3′-one], the EC50 came to 166 nM.

Consider `O=C(c1coc(Cl)n1)N1CCC2(CC1)O[C@@H]1CC[C@@H](c3cccc(F)c3)N1C2=O` [Example 6.127, (5′S,7a′R)-1-(2-chloro-1,3-oxazole-4-carbon-yl)-5′-(3-fluorophenyl)-tetrahydro-3′H-spiro [piperidine-4,2′-pyrrolo[2,1-b][1,3]oxazol]-3′-one], for which the EC50 stood at 60.8 nM.

As to `O=C(c1onc2ccccc12)N1CCC2(CC1)O[C@@H]1CC[C@@H](c3cc(F)cc(F)c3)N1C2=O` [Example 6.50, (5′S,7a′R)-1-(2,1-benzoxazole-3-carbonyl)-5′-(3,5-difluorophenyl)tetra-hydro-3′H-spiro [piperidine-4,2′-pyrrolo[2,1-b][1,3]oxazol]-3′-one], the concentration for a half-maximal effect (EC50) was less than 25 nM.

As to `Cc1cc(C#N)cnc1N1CCC2(CC1)O[C@@H]1CC[C@@H](c3cc(F)cc(F)c3)N1C2=O` [Example 4.47, 6-[(5′S,7a′R)-5′-(3,5-difluorophenyl)-3′-oxotetrahydro-1H,3′H-spiro[piperidine-4,2′-pyrrolo[2,1-b] [1,3]oxazol]-1-yl]-5-methylpyridine-3-carbonitrile], the half-maximal effective concentration (EC50) was less than 25 nM.

As to `O=C1N2[C@@H](CC[C@H]2c2ccccc2)OC12CCN(c1cc(C3CC3)ccn1)CC2` [Example 11.22, (5′S,7a′R)-1-(4-cyclopropylpyridin-2-yl)-5′-phenyltetrahydro-3′H-spiro[piperidine-4,2′-pyrrolo[2,1-b][1,3]oxazol]-3′-one], the EC50 is 761 nM.

As for `Cc1ncc([C@@H]2CC[C@H]3OC4(CCN(C(=O)c5ccccc5)CC4F)C(=O)N32)cc1F` (stereo partly drawn) [Example 2.10, (5′S,7a′R)-1-(benzenecarbonyl)-3-fluoro-5′-(5-fluoro-6-methylpyridin-3-yl)tetrahydro-3′H-spiro[piperidine-4,2′-pyrrolo[2,1-b][1,3]oxazol]-3′-one], the 50% effective concentration (EC50) came to 136 nM.

Take `O=C(c1cccc(N2CCCC2=O)c1)N1CCC2(CC1)O[C@@H]1CC[C@@H](c3cc(F)cc(F)c3)N1C2=O` [Example 6.56, (5′S,7a′R)-5′-(3,5-difluorophenyl)-1-[3-(2-oxopyrrolidin-1-yl)benzene-1-carbon-yl]tetrahydro-3′H-spiro[piperidine-4,2′-pyrrolo[2,1-b][1,3]-oxazol]-3′-one]: the EC50 was less than 25 nM.

`O=C1N2[C@@H](CC[C@H]2c2ccccc2)OC12CCN(c1cccc3ncnn13)CC2F` (single isomer, unassigned) [Example 13.18, (3[S or R], 4 [R or S], 5′S,7a′R)-1-([1,2,4]triazolo[1,5-a]pyridin-5-yl)-3-fluoro-5′-phenyltetrahydro-3′H-spiro[piperidine-4,2′-pyrrolo[2,1-b]oxazol]-3′-one, TFA salt]: the EC50 is less than 25 nM.

Turning to `O=C(c1ncoc1C1CC1)N1CCC2(CC1)O[C@@H]1CC[C@@H](c3cc(F)cc(F)c3)N1C2=O` [Example 6.24, (5′S,7a′R)-1-(5-cyclo-propyl-1,3-oxazole-4-carbonyl)-5′-(3,5-difluorophenyl)tetra-hydro-3′H-spiro[piperi-dine-4,2′-pyrrolo[2,1-b][1,3]oxazol]-3′-one], the EC50 came out at 32.3 nM.

Consider `O=C(c1cnc2ccccc2n1)N1CCC2(CC1)O[C@@H]1CC[C@@H](c3cc(F)cc(F)c3)N1C2=O` [Example 6.73, (5′S,7a′R)-5′-(3,5-difluorophenyl)-1-(quinoxaline-2-carbon-yl)tetrahydro-3′H-spiro[piperidine-4,2′-pyrrolo[2,1-b][1,3]-oxazol]-3′-one], for which the EC50 was found to be 48.6 nM.

`Cc1cccc(C(=O)N2CCC3(CC2)O[C@@H]2CC[C@@H](c4cccc(F)c4)N2C3=O)c1F` [Example 6.119, (5′S,7a′R)-1-(2-fluoro-3-methylbenzene-1-carbonyl)-5′-(3-fluoro-phenyl)tetrahydro-3′H-spiro[piperidine-4,2′-pyrrolo[2,1-b][1,3]oxazol]-3′-one]: the EC50 is less than 25 nM.

With `O=C(c1ccn(C2CC2)n1)N1CCC2(CC1)O[C@@H]1CC[C@@H](c3cc(F)cc(F)c3)N1C2=O` [Example 5.52, (5′S,7a′R)-1-(1-cycloprop-yl-1H-pyrazole-3-carbon-yl)-5′-(3,5-difluorophen-yl)tetrahydro-3′H-spiro [piperidine-4,2′-pyrrolo-[2,1-b]oxazol]-3′-one], the EC50 is 88.8 nM.

Consider `O=C(c1nnn2ccccc12)N1CCC2(CC1)O[C@@H]1CC[C@@H](c3cc(F)cc(F)c3)N1C2=O` [Example 5.66, (5′S,7a′R)-1-([1,2,3]-triazolo-[1,5-a]pyridine-3-carbonyl)-5′-(3,5-difluoro-phenyl)tetrahydro-3′H-spiro[piperidine-4,2′-pyrrolo[2,1-b]oxazol]-3′-one], for which the EC50 came out at 81.1 nM.

As to `O=C(c1cc2ccccc2o1)N1CCC2(CC1)O[C@@H]1CC[C@@H](c3cc(F)cc(F)c3)N1C2=O` [Example 5.69], the EC50 came to 45.3 nM.

Take `O=C1N2[C@@H](CC[C@H]2c2ccccc2)OC12CCN(c1ccnc3c(F)cnn13)CC2F` (single isomer, unassigned) [Example 4.92, (3[S or R],4[R or S], 5′S,7a′R)-3-fluoro-1-(3-fluoropyrazolo[1,5-a]pyrimidin-7-yl)-5′-phenyltetrahydro-3′H-spiro[piperidine-4,2′-pyrrolo[2,1-b]oxazol]-3′-one, TFA salt]: the EC50 is less than 25 nM.

For `Nc1nnc(N2CCC3(CC2)O[C@@H]2CC[C@@H](c4ccccc4)N2C3=O)s1` [Example 11.23, (5′S,7a′R)-1-(5-amino-1,3,4-thiadiazol-2-yl)-5′-phenyltetrahydro-3′H-spiro[piperidine-4,2′-pyrrolo[2,1-b][1,3]oxazol]-3′-one], the EC50 amounted to 306 nM.

Take `O=C1N2C(CCC2c2cc(F)cc(F)c2)OC12CCN(c1cc(F)ccn1)CC2` (centres unmarked) [Example 4.3, 5′-(3,5-difluorophenyl)-1-(4-fluoropyridin-2-yl)tetrahydro-3′H-spiro[piperidine-4,2′-pyrrolo[2,1-b] [1,3]oxazol]-3′-one]: the EC50 was less than 25 nM.

As to `Cc1ccnc(C(=O)N2CCC3(CC2)O[C@@H]2CC[C@@H](c4cc(F)cc(F)c4)N2C3=O)n1` [Example 6.88, (5′S,7a′R)-5′-(3,5-difluorophenyl)-1-(4-methylpyrimidine-2-carbonyl)tetrahydro-3′H-spiro[piperidine-4,2′-pyrrolo[2,1-b] [1,3]oxazol]-3′-one], the concentration for a half-maximal effect (EC50) was determined as 136 nM.
